One assay addresses MAO-B (Homo sapiens (Human), UniProt P27338). As to the kind of experiment: Monoamine oxidase assay (kynuramine to 4-hydroxyquinoline fluorescence), MAO-B. The class given is biochemical. Conditions: Table 1. How it is done:
(§1) Human recombinant monoamine oxidase proteins MAO-A and MAO-B were purchased from Sigma Aldrich. MOAs catalyze the oxidative deamination of 1°, 2° and 3° amines. In order to monitor MAO enzymatic activities and/or their inhibition rate by inhibitor(s) of interest, a fluorescent-based (inhibitor)-screening assay was set up. 3-(2-Aminophenyl)-3-oxopropamamine (kynuramine dihydrobromide, Sigma Aldrich), a non fluorescent compound was chosen as a substrate. Kynuramine is a non-specific substrate for both MAOs activities. While undergoing oxidative deamination by MAO activities, kynuramine is converted into 4-hydroxyquinoline (4-HQ), a resulting fluorescent product.
(§2) The monoamine oxidase activity was estimated by measuring the conversion of kynuramine into 4-hydroxyquinoline. Assays were conducted in 96-well black plates with clear bottom (Corning) in a final volume of 100 μL. The assay buffer was 100 mM HEPES, pH 7.5. Each experiment was performed in triplicate within the same experiment.
(§3) The oxidative deamination of the substrate was stopped by adding 50 μL (v/v) of NaOH 2N.
(§4) The Ki of each inhibitor was measure at Vmax/2.

The next assay has as its target MAO-A (Homo sapiens (Human), UniProt P21397). Put plainly: Monoamine oxidase assay (kynuramine to 4-hydroxyquinoline fluorescence), MAO-A. The conditions noted are these: for Ki: Table 1. In kind it is biochemical. How it is done:
as §1, §2, §3, §4

Assay [1] addresses Human recombinant LSD1 protein (Homo sapiens (Human), UniProt O60341). Put plainly: LSD1 demethylase inhibition assay (Amplex Red peroxide/peroxidase-coupled, di-methylated H3-K4 peptide). Conditions: for ability to inhibit LSD1: preliminary assays, result in words; for LSD1 percent at fixed concentration: at 20 μM.
Experimental: The demethylase activity was estimated, under aerobic conditions, by measuring the release of H2O2 produced during the catalytic process, using the Amplex® Red peroxide/peroxidase-coupled assay kit (Invitrogen).
Tranylcypromine (Biomol International) was used as a control for inhibition. Within the experiment, each concentration of inhibitor was tested in triplicate. […] The enzymatic reactions were set up in a 50 mM sodium phosphate, pH 7.4 buffer. […] A 1 μM H2O2 solution was used as a control of the kit efficiency. The conversion of the Amplex® Red reagent to resorufin due to the presence of H2O2 in the assay, was monitored by fluorescence (excitation at 540 nm, emission at 590 nm) using a microplate reader (Infinite 200, Tecan). Arbitrary units were used to measure level of H2O2 produced in the absence and/or in the presence of inhibitor.
The Ki of each inhibitor was estimated at half of the maximum activity.

We go through six compounds from US8524717B2, “Oxidase inhibitors and their use” (Oryzon Genomics, S.A., priority 2008, dated 2013).

MAO-A, sequence (P21397 whole entry): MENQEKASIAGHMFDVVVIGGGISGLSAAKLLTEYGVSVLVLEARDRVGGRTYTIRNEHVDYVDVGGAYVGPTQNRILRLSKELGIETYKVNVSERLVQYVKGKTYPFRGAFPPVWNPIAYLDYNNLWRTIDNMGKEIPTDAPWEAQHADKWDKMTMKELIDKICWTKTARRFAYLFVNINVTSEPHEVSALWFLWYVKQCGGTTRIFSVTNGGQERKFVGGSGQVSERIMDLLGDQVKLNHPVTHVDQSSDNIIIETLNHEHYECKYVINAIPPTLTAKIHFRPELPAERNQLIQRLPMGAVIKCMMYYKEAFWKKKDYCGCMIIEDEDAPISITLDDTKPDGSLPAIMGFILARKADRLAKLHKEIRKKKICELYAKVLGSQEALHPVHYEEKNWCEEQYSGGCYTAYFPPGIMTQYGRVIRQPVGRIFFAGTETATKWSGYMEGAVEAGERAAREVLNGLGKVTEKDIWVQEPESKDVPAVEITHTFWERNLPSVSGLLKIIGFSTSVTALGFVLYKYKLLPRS
MAO-B, sequence (P27338 whole entry): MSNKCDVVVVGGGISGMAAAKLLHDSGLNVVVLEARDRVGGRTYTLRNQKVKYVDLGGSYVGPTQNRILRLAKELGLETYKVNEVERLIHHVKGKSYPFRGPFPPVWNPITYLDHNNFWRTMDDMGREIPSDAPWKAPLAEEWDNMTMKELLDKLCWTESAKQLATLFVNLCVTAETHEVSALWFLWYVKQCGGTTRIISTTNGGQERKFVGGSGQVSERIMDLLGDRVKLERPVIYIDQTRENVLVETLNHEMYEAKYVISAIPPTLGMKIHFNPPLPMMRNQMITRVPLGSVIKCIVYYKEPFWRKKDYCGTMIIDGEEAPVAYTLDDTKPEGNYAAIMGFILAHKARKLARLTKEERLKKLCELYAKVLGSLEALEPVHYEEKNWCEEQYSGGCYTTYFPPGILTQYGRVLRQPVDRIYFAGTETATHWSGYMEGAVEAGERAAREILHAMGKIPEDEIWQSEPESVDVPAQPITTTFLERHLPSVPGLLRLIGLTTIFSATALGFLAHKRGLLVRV

For orientation: Ki means a dissociation constant, usually derived from enzyme kinetics or from competition with a known ligand. With `O=C(CN[C@H]1C[C@@H]1c1ccccc1)Nc1ccc(F)cc1` (relative stereo) [Example 8, N-(4-fluorophenyl)-2-{[(trans)-2-phenylcyclopropyl]amino}acetamide], the Ki (on MAO-B; on MAO-A; in assay [1]) was greater than 50 µM each time. Moreover, the “ability to inhibit LSD1” value in assay [1] is given as “did not inhibit LSD1”.

For `CN(C)CCNC(=O)CN[C@H]1C[C@@H]1c1ccccc1` (relative stereo) [Example 13, N-(2-(dimethylamino)ethyl)-2-((trans)-2-phenylcyclopropylamino)acetamide], the Ki at MAO-B and at MAO-A was greater than 40 µM each time.

Turning to `CN(CC(=O)NC1CC1)[C@H]1C[C@@H]1c1ccccc1` (relative stereo) [Example 19, N-cyclopropyl-2-{methyl[(trans)-2-phenylcyclopropyl]amino}acetamide], the Ki at MAO-B is greater than 100 µM; on MAO-A it was 74 µM. The “LSD1 percent at fixed concentration” value in assay [1] came to 34% at 20.

For the compound `CN(CC(N)=O)[C@H]1C[C@@H]1c1ccccc1` (relative stereo) [Example 20, 2-{methyl[(trans)-2-phenylcyclopropyl]amino}acetamide], the Ki on MAO-B and at MAO-A was greater than 100 µM throughout. The “LSD1 percent at fixed concentration” value in assay [1] is recorded as 40% at 20.

Turning to `CC(C)(C)NC(=O)CN(Cc1ccccc1)[C@H]1C[C@@H]1c1ccccc1` (relative stereo) [Example 21, 2-(benzyl((trans)-2-phenylcyclopropyl)amino)-N-tert-butylacetamide], in assay [1], the Ki was greater than 100 µM and the “ability to inhibit LSD1” value is recorded as “did not inhibit LSD1”.

For the compound `CN1CCN(C(=O)CN[C@H]2C[C@@H]2c2ccc(OCc3ccccc3)cc2)CC1` (relative stereo) [Example 26, 2-((trans)-2-(4-(benzyloxy)phenyl)cyclopropylamino)-1-(4-methylpiperazin-1-yl)ethanone], at MAO-A, the “IC50 value for MAO-A” value was “low micromolar range” and the inhibition constant Ki was 11 µM.
